Results published in patent US10227324B2 (Shanghai Haiyan Pharmaceutical Technology Co., Ltd., priority 2014, dated 2019).
Where two headings read alike, the source gives them in different places.

Key:
[1] = molecular target: T1, PI3K-α kinase (p110α/p85α) (Homo sapiens, UniProt P42336); test: Determination of PI3K kinase activity (ADP Transcreener, fluorescence polarization); type: biochemical; conditions: ATP 10 μM
T1 construct: purchased Invitrogen PV4788
Experimental: (§1) The inhibition of PI3K kinase activity by the compound to be tested was determined by the following method. The working concentration of each component in the 25 μL enzyme reaction system was: p110α/p85α 3 ng (or p110β/p85α 60 ng, or p110δ/p85α 90 ng, or p110γ 100 ng), ATP 10 μM, PIP2: PS (Invitrogen PV5100) 30 μM and the DMSO concentration was 2% after addition of the compound to be tested.
(§2) At the time of the test, the compound to be tested was dissolved in dimethylsulfoxide (DMSO) according to the desired concentration of the experiment. The compound to be tested was gradiently diluted 3 times (0.00046-1 μM, 8 concentration points) with 10% DMSO. 5 μL of the compound to be tested was added to each well of a 96-well plate (Greiner 675076) in duplicate. […] 10 μL of ATP/PIP2: PS and 10 μL of the PI3K enzyme working solution were added to each well in a 96-well plate. The plate was shaken and mixed uniformly, and then incubated at 25° C. for 1 hour. At the same time, ADP and ATP (0.01 μM, 0.02 μM, 0.04 μM, 0.06 μM, 0.08 μM[…], 0.1 μM, 0.25 μM, 0.5 μM, 1 μM, 2 μM, 5 μM, 10 μM, 12 concentration points) were diluted with buffer to set the standard curve. After completion of the enzyme reaction, 25 μL of ADP assay solution (1% 100×ADP tracer, 0.79% ADP antibody and 10% 10× reaction stop solution) was added and incubated at 25° C. for 1 hour. Fluorescence polarization value [mP] of each well was measured with a Perkin Elmer Victor X5 Fluorescent Microplate. The ADP concentration [ADP] was calculated from the ADP/ATP standard curve and the IC50 values were calculated using the XLFit software.

NIH3T3 cells = test: Cytotoxicity by MTT assay, NIH3T3; type: cell-based; conditions: Mus musculus, NIH3T3, 72 h, cytotoxicity class, read-out: NIH3T3 cell (IC50/nM)
Experimental: The MTT assay procedure and steps were carried out as well known to those skilled in the art, and all the reagents used in the methods were commercially available.
(§3) The cells in logarithmic growth phase were digested with 0.25% EDTA trypsin (Gibco, 25200-056) and resuspended in fresh medium. 90 μL of the cell suspension was inoculated into a 96-well cell culture plate (BD Faclon 353072) with a suitable cell density and cultured at 37° C. under 5% CO2. After the cells adhered, 10 μL of the test compound at different concentrations (0.0046-10 μM, 8 concentration points) was added and incubated for another 72 h. 10 μL of MTT (5 mg/mL PBS solution) (Sigma, M5655) was added to react for 4 h. The absorbance at 492 nm was measured by using Thermo Scientific Multiskan MK3 microplate reader and IC50 was calculated using XLFIT 5.0 software (UK IDBS).

T47D cells = test: Cell inhibitory activity detected by MTT assay, T47D; type: cell-based; conditions: Homo sapiens, T47D, 72 h, read-out: T47D cell (IC50/nM), cell growth inhibition
Experimental: as §3, with “The MTT assay procedure and steps were carried out as well known to those skilled in the art, and all the reagents used in the methods were commercially available. The cells” for “The cells”, “(UK IDBS). T47D cell culture medium: RPMI-1640 medium (Hyclone SH30809.01B)+10% FBS (Gibco 10099-141)” for “(UK IDBS).”

MCF-7 cells = test: Cell inhibitory activity detected by MTT assay, MCF-7; type: cell-based; conditions: Homo sapiens, MCF7, 72 h, read-out: MCF-7 cell (IC50/nM), cell growth inhibition
Experimental: as §3, with “The MTT assay procedure and steps were carried out as well known to those skilled in the art, and all the reagents used in the methods were commercially available. The cells” for “The cells”, “(UK IDBS). MCF-7 cell culture medium: DMEM medium (Hyclone SH30243.01B+10% FBS (Gibco 10099-141)” for “(UK IDBS).”

PI3K-γ kinase (p110γ) = molecular target: T2, PI3K-γ kinase (p110γ) (Homo sapiens, UniProt P48736); test: Determination of PI3K kinase activity (ADP Transcreener, fluorescence polarization); type: biochemical; conditions: Table 1; ATP 10 μM; read-out: PI3K-γ/nM (IC50 of inhibitory activity against PI3K kinase)
T2 construct: purchased Invitrogen PV4786
Experimental: The PI3K kinase used in the experiment: p110α/p85α (Invitrogen PV4788), p110β/p85α (Millipore 14-603), p110δ/p85α (Millipore 14-604M), and p110γ (Invitrogen PV4786).
as §1
as §2, with “duplicate. 2.5× buffer was prepared and 1 μL of DTT (Millipore 20-265) was added to each 800 μL of 2.5× buffer.” for “duplicate.”

[2] = molecular target: T3, PI3K-β kinase (p110β/p85α) (Homo sapiens, UniProt P42338); test: as above; type: biochemical; conditions: Table 1; ATP 10 μM; read-out: PI3K-β/nM (IC50 of inhibitory activity against PI3K kinase)
T3 construct: purchased Millipore 14-603
Experimental: as §1, §2

[3] = molecular target: T4, PI3K-δ kinase (p110δ/p85α) (Homo sapiens, UniProt O00329); test: as above; type: biochemical; conditions: Table 1; ATP 10 μM; read-out: PI3K-δ/nM (IC50 of inhibitory activity against PI3K kinase)
T4 construct: purchased Millipore 14-604M
Experimental: as §1, §2

[4] = Table 2, read-out: PI3K-α/nM (IC50 of inhibitory activity against PI3K-α kinase)
[5] = Table 1, read-out: PI3K-α/nM (IC50 of inhibitory activity against PI3K kinase)

T2 sequence (P48736 whole entry): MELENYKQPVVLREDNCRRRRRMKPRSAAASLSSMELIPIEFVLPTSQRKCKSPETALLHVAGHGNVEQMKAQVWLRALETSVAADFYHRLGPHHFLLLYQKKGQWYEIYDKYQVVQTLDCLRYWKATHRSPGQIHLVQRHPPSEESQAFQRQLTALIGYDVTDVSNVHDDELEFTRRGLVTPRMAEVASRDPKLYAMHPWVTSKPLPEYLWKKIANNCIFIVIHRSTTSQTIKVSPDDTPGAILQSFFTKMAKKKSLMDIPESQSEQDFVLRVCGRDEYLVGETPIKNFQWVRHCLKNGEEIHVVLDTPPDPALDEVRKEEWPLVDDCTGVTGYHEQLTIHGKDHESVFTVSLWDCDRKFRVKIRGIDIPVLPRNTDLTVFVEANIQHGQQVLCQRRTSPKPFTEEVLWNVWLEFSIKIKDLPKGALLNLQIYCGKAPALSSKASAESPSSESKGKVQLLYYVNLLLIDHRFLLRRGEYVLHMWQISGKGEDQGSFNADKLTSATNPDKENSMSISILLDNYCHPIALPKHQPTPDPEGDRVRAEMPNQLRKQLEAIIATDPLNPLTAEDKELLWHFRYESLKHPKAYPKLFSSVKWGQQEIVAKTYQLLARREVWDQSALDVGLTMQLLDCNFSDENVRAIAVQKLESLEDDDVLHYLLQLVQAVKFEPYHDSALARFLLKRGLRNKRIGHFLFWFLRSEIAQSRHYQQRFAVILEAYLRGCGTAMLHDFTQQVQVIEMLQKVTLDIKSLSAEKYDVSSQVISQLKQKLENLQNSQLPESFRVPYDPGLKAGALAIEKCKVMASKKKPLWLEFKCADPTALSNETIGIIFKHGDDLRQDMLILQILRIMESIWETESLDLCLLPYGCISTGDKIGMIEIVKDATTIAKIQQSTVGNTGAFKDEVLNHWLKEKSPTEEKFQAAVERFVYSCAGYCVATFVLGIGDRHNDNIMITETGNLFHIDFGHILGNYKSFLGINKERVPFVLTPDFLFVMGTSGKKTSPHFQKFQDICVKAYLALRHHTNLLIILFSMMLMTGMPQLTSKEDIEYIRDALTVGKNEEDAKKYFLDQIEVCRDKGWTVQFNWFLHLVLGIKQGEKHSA
T1 sequence (P42336 whole entry): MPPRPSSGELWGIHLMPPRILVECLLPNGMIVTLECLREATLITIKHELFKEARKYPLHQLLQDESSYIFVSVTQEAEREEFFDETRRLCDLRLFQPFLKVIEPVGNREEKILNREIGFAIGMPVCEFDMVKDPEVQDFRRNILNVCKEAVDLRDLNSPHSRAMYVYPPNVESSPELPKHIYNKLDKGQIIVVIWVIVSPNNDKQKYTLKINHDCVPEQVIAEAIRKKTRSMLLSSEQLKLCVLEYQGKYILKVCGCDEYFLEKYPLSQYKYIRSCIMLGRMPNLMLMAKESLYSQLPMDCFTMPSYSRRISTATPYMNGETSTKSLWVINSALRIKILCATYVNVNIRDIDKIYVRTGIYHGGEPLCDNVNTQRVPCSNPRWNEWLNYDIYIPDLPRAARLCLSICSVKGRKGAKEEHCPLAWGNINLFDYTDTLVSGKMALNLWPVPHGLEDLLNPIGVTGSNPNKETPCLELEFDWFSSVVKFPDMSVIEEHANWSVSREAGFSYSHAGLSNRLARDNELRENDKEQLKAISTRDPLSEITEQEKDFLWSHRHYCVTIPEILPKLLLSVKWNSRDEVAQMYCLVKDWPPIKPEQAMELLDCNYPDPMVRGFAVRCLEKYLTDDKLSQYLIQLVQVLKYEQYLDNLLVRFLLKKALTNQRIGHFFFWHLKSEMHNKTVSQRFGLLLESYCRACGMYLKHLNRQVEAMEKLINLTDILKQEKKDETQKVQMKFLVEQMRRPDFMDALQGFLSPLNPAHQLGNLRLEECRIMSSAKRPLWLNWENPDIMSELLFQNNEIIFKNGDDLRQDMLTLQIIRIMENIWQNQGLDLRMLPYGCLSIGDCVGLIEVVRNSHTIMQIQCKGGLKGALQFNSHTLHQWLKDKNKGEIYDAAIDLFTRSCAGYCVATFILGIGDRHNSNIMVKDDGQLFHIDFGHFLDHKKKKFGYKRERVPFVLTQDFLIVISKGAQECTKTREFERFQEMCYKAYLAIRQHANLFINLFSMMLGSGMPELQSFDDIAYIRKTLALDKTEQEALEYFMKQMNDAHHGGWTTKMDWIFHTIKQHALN
T1 sequence (P27986 whole entry partner): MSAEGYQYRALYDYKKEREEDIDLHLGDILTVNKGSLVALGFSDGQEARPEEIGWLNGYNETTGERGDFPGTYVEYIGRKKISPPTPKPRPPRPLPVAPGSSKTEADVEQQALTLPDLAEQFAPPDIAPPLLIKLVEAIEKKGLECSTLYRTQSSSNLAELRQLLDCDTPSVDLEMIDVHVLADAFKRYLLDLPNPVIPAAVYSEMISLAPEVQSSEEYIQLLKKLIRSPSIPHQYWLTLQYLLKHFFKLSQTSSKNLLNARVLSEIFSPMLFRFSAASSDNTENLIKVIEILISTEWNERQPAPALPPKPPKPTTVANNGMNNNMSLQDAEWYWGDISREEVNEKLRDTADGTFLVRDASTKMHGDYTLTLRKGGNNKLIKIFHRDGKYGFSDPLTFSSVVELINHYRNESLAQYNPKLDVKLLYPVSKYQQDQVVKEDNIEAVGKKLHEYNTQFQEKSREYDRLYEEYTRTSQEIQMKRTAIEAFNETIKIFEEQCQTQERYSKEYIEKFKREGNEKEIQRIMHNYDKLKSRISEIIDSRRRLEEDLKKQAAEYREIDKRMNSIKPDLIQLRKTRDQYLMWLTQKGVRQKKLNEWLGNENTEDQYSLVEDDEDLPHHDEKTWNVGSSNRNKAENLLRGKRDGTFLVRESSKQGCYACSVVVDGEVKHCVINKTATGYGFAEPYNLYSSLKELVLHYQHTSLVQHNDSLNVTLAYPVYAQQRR
T3 sequence (P42338 whole entry): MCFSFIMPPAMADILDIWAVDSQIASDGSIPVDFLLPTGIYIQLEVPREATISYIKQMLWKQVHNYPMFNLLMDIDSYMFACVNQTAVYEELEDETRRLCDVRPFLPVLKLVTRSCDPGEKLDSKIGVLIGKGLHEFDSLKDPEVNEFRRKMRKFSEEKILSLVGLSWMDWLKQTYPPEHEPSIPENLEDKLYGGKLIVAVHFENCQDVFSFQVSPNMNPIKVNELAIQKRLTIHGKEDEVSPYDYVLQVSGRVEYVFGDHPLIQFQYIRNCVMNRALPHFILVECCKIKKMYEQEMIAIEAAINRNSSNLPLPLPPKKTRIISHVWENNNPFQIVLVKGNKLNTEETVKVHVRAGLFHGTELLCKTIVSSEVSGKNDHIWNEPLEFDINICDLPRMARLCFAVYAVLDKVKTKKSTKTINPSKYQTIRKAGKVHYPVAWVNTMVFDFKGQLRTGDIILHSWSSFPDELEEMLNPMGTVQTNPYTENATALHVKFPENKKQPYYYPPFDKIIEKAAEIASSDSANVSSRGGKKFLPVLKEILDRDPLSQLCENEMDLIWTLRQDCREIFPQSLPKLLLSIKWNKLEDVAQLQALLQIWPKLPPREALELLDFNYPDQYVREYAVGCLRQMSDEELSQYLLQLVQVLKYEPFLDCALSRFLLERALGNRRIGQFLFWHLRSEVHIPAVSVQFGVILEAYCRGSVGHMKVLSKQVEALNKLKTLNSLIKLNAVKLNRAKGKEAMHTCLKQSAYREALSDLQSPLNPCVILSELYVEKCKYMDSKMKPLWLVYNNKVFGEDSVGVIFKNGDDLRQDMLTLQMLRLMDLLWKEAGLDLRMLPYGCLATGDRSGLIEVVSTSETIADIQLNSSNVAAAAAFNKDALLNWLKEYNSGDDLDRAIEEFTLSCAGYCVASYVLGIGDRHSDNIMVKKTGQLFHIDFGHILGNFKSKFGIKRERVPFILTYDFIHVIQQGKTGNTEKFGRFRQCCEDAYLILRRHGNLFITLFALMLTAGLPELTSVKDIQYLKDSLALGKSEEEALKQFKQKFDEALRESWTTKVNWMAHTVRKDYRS
T3 sequence (P27986 whole entry partner): as the sequence (P27986 whole entry partner) above
T4 sequence (O00329 whole entry): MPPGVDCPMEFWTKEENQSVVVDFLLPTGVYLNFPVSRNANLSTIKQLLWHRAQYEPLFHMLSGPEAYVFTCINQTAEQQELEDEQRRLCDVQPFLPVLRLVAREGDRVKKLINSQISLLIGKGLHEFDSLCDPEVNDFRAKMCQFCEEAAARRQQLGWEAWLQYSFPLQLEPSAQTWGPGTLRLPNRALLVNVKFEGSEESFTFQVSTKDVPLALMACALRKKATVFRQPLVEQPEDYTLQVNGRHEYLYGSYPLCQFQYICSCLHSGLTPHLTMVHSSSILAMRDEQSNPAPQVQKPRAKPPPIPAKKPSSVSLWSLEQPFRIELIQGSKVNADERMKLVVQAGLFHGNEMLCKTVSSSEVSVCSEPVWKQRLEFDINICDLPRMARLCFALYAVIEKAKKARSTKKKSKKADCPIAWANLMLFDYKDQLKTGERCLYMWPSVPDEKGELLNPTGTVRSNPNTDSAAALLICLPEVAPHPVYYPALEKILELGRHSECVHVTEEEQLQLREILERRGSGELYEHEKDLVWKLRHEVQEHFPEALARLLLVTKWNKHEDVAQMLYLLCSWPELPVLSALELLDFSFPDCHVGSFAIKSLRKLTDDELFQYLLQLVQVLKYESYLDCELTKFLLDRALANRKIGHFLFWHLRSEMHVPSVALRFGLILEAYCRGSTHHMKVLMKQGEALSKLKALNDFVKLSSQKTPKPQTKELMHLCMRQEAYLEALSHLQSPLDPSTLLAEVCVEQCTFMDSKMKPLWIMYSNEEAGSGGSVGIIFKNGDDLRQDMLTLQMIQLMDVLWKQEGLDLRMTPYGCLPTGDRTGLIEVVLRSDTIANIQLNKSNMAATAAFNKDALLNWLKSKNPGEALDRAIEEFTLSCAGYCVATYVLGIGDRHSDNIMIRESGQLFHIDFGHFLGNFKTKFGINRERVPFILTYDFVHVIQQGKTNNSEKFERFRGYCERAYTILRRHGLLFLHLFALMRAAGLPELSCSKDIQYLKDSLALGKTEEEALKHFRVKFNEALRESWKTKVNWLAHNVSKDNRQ
T4 sequence (P27986 whole entry partner): as the sequence (P27986 whole entry partner) above

| Structure (SMILES) | IC50 [1, 4] [nM] | IC50 (T47D cells) [nM] | IC50 [1, 5] [nM] | IC50 (MCF-7 cells) [nM] | IC50 (PI3K-γ kinase (p110γ)) [nM] | IC50 [2] [nM] | IC50 [3] [nM] | IC50 (NIH3T3 cells) [nM] |
| --- | --- | --- | --- | --- | --- | --- | --- | --- |
| Nc1cc(C(F)(F)F)c(-c2cc(C3(C(=O)N4CCOCC4)CC3)nc(N3CCOCC3)n2)cn1 [Compound S-3, (1-(6-(6-amino-4-(trifluoromethyl)pyridin-3-yl)-2-morpholinopyrimidin-4-yl)cyclopropyl)(morpholino)ketone] | 280 |  |  |  |  |  |  | > 10000 |
| C[C@H]1COCCN1c1nc(-c2cnc(N)cc2C(F)(F)F)cc(C2(S(C)(=O)=O)CC2)n1 [Compound S-6] |  | 129 | 16 | 112 | 164 |  |  | 1000 to 3000 |
| CN(C1(c2cc(-c3cnc(N)cc3C(F)(F)F)nc(N3CCOCC3)n2)CC1)S(C)(=O)=O [Compound S-14, N-(1-(6-(6-amino-4-(trifluoromethyl)pyridin-3-yl)-2-morpholinopyrimidin-4-yl)cyclopropyl)-N-methylmethanesulfonamide] |  | 278 | 13 | 267 |  | 1120 |  | 1000 to 3000 |
| CC(C)S(=O)(=O)C(C)(C)c1cc(-c2cnc(N)cc2C(F)(F)F)nc(N2CCOCC2)n1 [Compound S-22] |  |  | 55 |  | 2120 | 1540 | 491 | 1000 to 3000 |
| CS(=O)(=O)NC1(c2cc(-c3cnc(N)cc3C(F)(F)F)nc(N3CCOCC3)n2)CC1 [Compound S-24, N-(1-(6-(6-amino-4-(trifluoromethyl)pyridin-3-yl)-2-morpholinopyrimidin-4-yl)cyclopropyl)methanesulfon amide] |  | 305 | 10 |  | 291 | 376 | 85 | 5000 to 10000 |
| Nc1cc(C(F)(F)F)c(-c2cc(C3(S(=O)(=O)c4ccccc4)CC3)nc(N3CCOCC3)n2)cn1 [Compound S-25] |  | 324 | 26 |  | 1930 | 217 | 67 | 1000 to 3000 |

Continued, in another order:

| IC50 [1, 4] [nM] | IC50 (T47D cells) [nM] | IC50 [1, 5] [nM] | IC50 (MCF-7 cells) [nM] | IC50 (PI3K-γ kinase (p110γ)) [nM] | IC50 [2] [nM] | IC50 [3] [nM] | Structure (SMILES) | IC50 (NIH3T3 cells) [nM] |
| --- | --- | --- | --- | --- | --- | --- | --- | --- |
| 390 |  |  |  |  |  |  | CC(=O)NC1(c2cc(-c3cnc(N)cc3C(F)(F)F)nc(N3CCOCC3)n2)CC1 [Compound S-26, N-(1-(6-(6-amino-4-(trifluoromethyl)pyridin-3-yl)-2-morpholinopyrimidin-4-yl)cyclopropyl)acetamide] | > 10000 |
|  |  |  |  | 256 | 1740 | 612 | CCS(=O)(=O)C(C)(C)c1cc(-c2cnc(N)cc2C(F)(F)F)nc(N2CCOCC2)n1 [Compound S-29] | 1000 to 3000 |
| 858 |  |  |  |  |  |  | CS(=O)(=O)C1(c2cc(-c3cnc(N)c(C(F)(F)F)c3)nc(N3CCOCC3)n2)CC1 [Compound S-44, 5-(6-(1-(methylsulfonyl)cyclopropyl)-2-morpholinopyrimidin-4-yl)-3-(trifluoromethyl)pyridin-2-amine] | 1000 to 3000 |
|  |  | 18 |  | 914 | 2780 | 336 | CS(=O)(=O)C(F)c1cc(-c2cnc(N)cc2C(F)(F)F)nc(N2CCOCC2)n1 (stereo not shown) [Compound S-52, 5-(6-(fluoro(methylsulfonyl)methyl)-2-morpholinopyrimidin-4-yl)-4-(trifluoromethyl)pyridin-2-amine] | 3000 to 5000 |
|  |  | 33 | 408 | 287 | 1550 | 516 | CS(=O)(=O)C(F)(F)c1cc(-c2cnc(N)cc2C(F)(F)F)nc(N2CCOCC2)n1 [Compound S-53] | 1000 to 3000 |
|  | 242 | 18 | 286 | 236 | 284 | 62 | Nc1cc(C(F)(F)F)c(-c2cc(C3(S(=O)(=O)c4cccc(F)c4)CC3)nc(N3CCOCC3)n2)cn1 [Compound S-57, 5-(6-(1-(3-fluorophenylsulfonyl)cyclopropyl)-2-morpholinopyrimidin-4-yl)-4-(trifluoromethyl)pyridin-2-amine] | 1000 to 3000 |
